Target: Metabotropic glutamate receptor 5 (Rattus norvegicus, UniProt P31424)
Test: Positive allosteric modulation of rat mGlu5 receptor expressed in HEK293A cells assessed as increase in glutamate induced-calcium mobilization preincubated for 2.3 mins followed by glutamate addition measured for 1.9 mins by Fluo-4 AM dye based fluorescence assay

Chain of Metabotropic glutamate receptor 5 (P31424 whole entry): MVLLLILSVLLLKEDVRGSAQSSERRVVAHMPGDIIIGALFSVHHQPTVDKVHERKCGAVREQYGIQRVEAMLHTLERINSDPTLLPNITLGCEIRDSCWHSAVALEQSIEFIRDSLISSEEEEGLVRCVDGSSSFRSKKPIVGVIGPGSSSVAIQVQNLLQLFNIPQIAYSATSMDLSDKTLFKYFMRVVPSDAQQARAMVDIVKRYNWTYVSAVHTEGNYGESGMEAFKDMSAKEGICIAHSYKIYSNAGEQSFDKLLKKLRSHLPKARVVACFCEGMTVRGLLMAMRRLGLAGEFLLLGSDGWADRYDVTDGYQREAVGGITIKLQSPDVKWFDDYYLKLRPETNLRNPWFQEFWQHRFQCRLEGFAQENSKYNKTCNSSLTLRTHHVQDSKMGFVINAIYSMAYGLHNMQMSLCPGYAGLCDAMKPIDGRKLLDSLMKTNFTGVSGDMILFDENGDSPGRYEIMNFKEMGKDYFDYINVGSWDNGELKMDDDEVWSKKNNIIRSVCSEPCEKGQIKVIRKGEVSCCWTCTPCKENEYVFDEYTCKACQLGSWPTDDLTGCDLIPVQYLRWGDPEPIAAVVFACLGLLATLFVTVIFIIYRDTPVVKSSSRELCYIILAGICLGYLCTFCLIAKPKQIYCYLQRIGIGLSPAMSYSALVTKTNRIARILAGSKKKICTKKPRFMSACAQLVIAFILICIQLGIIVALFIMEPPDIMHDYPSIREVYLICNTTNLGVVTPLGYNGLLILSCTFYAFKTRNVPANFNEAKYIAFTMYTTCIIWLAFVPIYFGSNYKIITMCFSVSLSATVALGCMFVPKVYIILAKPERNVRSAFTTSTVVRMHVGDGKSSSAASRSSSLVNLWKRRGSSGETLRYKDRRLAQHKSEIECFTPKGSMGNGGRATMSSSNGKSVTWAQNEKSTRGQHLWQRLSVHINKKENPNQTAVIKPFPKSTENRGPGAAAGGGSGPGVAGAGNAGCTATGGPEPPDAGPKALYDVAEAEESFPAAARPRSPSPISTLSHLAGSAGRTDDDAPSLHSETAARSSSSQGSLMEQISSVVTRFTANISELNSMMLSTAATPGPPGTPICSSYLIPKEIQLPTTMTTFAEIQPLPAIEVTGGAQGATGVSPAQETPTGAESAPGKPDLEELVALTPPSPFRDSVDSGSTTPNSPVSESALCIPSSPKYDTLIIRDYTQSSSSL

With `O=c1nc(OCCOc2ccccc2)ccn1-c1ccc(F)c(F)c1` the EC50 was 398 nM.

Source: BindingDB's records for doi:10.1021/acsmedchemlett.7b00249 (Vanderbilt University School of Medicine, 2017)
